Measured values: PubChem BioAssay AID1963851 (Molecular Pharmacology Branch, DTP, NCI, 2024)
Where “and” joins values, the source holds several entries; their conditions need not be identical. Equal entries are not always repeated.

Tested on: 188146-221-R-J1-PDC complex spheroid viability
Experiment: Anticancer human tumor 188146-221-R-J1-PDC patient-derived colon adenocarcinoma cell line growth inhibition [POLQ]
Details: for viability, T/C: stronger effect = lower value
Protocol: Multicellular complex tumor spheroid response to Polymerase (POL) inhibitors (novobiocin, ART-558, RP6685) in combination with a variety of drugs and investigational agents in selected tumor cell lines
The POL inhibitors (novobiocin, ART-558, and RP6685) were evaluated both individually and in combination with standard of care and investigational anticancer small molecules within a complex spheroid model of solid tumors. . Complex spheroids include a stromal component modeled by human endothelial cells (HUVEC) and fibroblasts modeled by human mesenchymal stem cells (MSCs). The concentration ranges selected for each drug and investigational agent were based upon clinically achievable concentrations if the clinical Cmax of the agent was known.
Compounds. The drugs and investigational agents: novobiocin (NSC847541), ART-558 (NSC835418), RP-6685 (NSC848927), peposertib (NSC802822), ceralasertib (NSC780249), elimusertib (NSC800525), camonsertib (NSC841442), AZD-1390 (NSC803789), olaparib (NSC753686), talazoparib (NSC767125), rucaparib (NSC756644), sotorasib (NSC818433), MRTX-1133 (NSC836407), SN-38 (NSC673596), topotecan (NSC609699), epotoside (NSC141540), doxorubicin (NSC123127), gemcitabine (NSC613327), 5-fluorouracil (NSC19893), paclitaxel (NSC125973), vemurafenib (NSC761431), MSA-2 (NSC828583), SN-011 (NSC837082), adavosertib (NSC754352), prexasertib (NSC758257), carboplatin (NSC241240) and oxaliplatin (NSC266046), were obtained from the National Cancer Institute (NCI) Developmental Therapeutics Program Chemical Repository (21). The FDA-approved anticancer drug set is available from the Developmental Therapeutics Program at https://dtp.cancer.gov/organization/dscb/obtaining/. […] The stock solutions were prepared in dimethyl sulfoxide (DMSO, Sigma-Aldrich, St. Louis, MO, cat. D2650), except for the platinum compounds which were prepared in saline (Quality Biological, Gaithersburg, MD, cat. 114-055-101), at 800-fold the tested concentration and stored at -70 degrees C prior to their use. All drugs and investigational agents were tested over a range starting from a high concentration at or near the clinical Cmax and decreasing in half-log increments. If the clinical Cmax for an agent had not been determined, the highest concentration tested was 10 microM, except for SN-38, which was tested at a high concentration of 1 microM.
Cell Culture. All cells were maintained in an incubator at 37 degrees C and 5% CO2 with 95% humidity. The PDC lines were cultured according to standard operating procedures established by the NCI PDMR (https://pdmr.cancer.gov). Table 3 of the manuscript, lists the cell lines along with the number of the three cell types plated to form the mct-spheroids and media for tumor cell growth. After thawing, all PDC lines, except 997537-175-T-J1-PDC and 415267-285-R-J2-PDC, were cultured in Matrigel-coated flasks prepared with a working solution of 1X Ham's F-12 nutrient mix, without supplementation (Thermo Fisher Scientific, cat. 11765054), 100 U/mL penicillin-streptomycin (Thermo Fisher Scientific, cat. 15140122), and 2.5% Matrigel (Corning Inc., Corning, NY, cat. 354248) for the first three passages. The two PDC lines 997537-175-T-J1-PDC and 415267-285-R-J2-PDC were cultured on uncoated flasks. The 857933-349-R-J2-PDC line was cultured in 6C/Colon 1B media containing advanced DMEM/F-12 (Thermo Fisher Scientific, cat. 12634028), 10 mM HEPES (Thermo Fisher Scientific, cat. 15630080), 1X GlutaMAX supplement (Thermo Fisher Scientific, cat. 35050061), 0.1 mg/mL primocin (InvivoGen, San Diego, CA, cat. ant-pm-2), 10% defined fetal bovine serum, heat inactivated (HyClone Laboratories Inc., Logan, UT, cat. SH30070.03HI), 50% L-WRN conditioned media (ATCC, cat. CRL-3276), 1.25 mM N-Acetyl-L-cysteine (Sigma-Aldrich, cat. A9165), 10 mM nicotinamide (Sigma-Aldrich, cat. N0636), 1X B-27 supplement (Thermo Fisher Scientific, cat. 17504044), 1X N-2 supplement (Thermo Fisher Scientific, cat. […]

[1] = curve of first compound, second compound 0.0316 µM
[2] = curve of first compound, second compound 0.1 µM
[3] = curve of first compound, second compound 0.316 µM
[4] = curve of first compound, second compound 1 µM
[5] = curve of first compound, second compound 3.16 µM
[6] = curve of first compound, second compound 10 µM
[7] = second compound 0.0316 µM, first compound 0.0316 µM
[8] = second compound 0.0316 µM, first compound 0.1 µM
[9] = second compound 0.1 µM, first compound 0.0316 µM
[10] = second compound 0.1 µM, first compound 0.1 µM
[11] = second compound 0.316 µM, first compound 0.0316 µM
[12] = second compound 0.316 µM, first compound 0.1 µM
[13] = second compound 1 µM, first compound 0.0316 µM
[14] = second compound 1 µM, first compound 0.1 µM
[15] = second compound 3.16 µM, first compound 0.0316 µM
[16] = second compound 3.16 µM, first compound 0.1 µM
[17] = second compound 10 µM, first compound 0.0316 µM
[18] = second compound 10 µM, first compound 0.1 µM
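Also: spheroids exposed to compounds for seven days.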
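For viability, T/C in this document: 100% = DMSO vehicle control viability.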

## CCCS(=O)(=O)Nc1ccc(F)c(C(=O)c2c[nH]c3ncc(-c4ccc(Cl)cc4)cc23)c1F + Nc1ccc(C#CCN(C(=O)Cc2ncc(C(F)(F)F)cc2C(F)(F)F)c2ccc(F)cc2)nn1
[1]
  IC50: 6.67 µM
[2]
  IC50: 6.11 µM
[3]
  IC50: 6.9 µM
[4]
  IC50: 6.33 µM
[5]
  IC50: 6.27 µM
[6]
  IC50: 6.54 µM
[7]
  viability, T/C: 104%
[8]
  viability, T/C: 116%
Second compound 0.0316 µM, first compound 0.316 µM
  viability, T/C: 101%
Second compound 0.0316 µM, first compound 1 µM
  viability, T/C: 84.7%
Second compound 0.0316 µM, first compound 3.16 µM
  viability, T/C: 85.3%
Second compound 0.0316 µM, first compound 10 µM
  viability, T/C: 33.6%
[9]
  viability, T/C: 119%
[10]
  viability, T/C: 98.2%
Second compound 0.1 µM, first compound 0.316 µM
  viability, T/C: 103%
Second compound 0.1 µM, first compound 1 µM
  viability, T/C: 89.2%
Second compound 0.1 µM, first compound 3.16 µM
  viability, T/C: 81.9%
Second compound 0.1 µM, first compound 10 µM
  viability, T/C: 29%
[11]
  viability, T/C: 94.4%
[12]
  viability, T/C: 99.6%
Second compound 0.316 µM, first compound 0.316 µM
  viability, T/C: 101%
Second compound 0.316 µM, first compound 1 µM
  viability, T/C: 88.7%
Second compound 0.316 µM, first compound 3.16 µM
  viability, T/C: 93.8%
Second compound 0.316 µM, first compound 10 µM
  viability, T/C: 29.2%
[13]
  viability, T/C: 95.9%
[14]
  viability, T/C: 96.7%
Second compound 1 µM, first compound 0.316 µM
  viability, T/C: 88.9%
Second compound 1 µM, first compound 1 µM
  viability, T/C: 76.8%
Second compound 1 µM, first compound 3.16 µM
  viability, T/C: 80.2%
Second compound 1 µM, first compound 10 µM
  viability, T/C: 33%
[15]
  viability, T/C: 98.5%
[16]
  viability, T/C: 104%
Second compound 3.16 µM, first compound 0.316 µM
  viability, T/C: 104%
Second compound 3.16 µM, first compound 1 µM
  viability, T/C: 77.2%
Second compound 3.16 µM, first compound 3.16 µM
  viability, T/C: 84%
Second compound 3.16 µM, first compound 10 µM
  viability, T/C: 30.6%
[17]
  viability, T/C: 116%
[18]
  viability, T/C: 112%
Second compound 10 µM, first compound 0.316 µM
  viability, T/C: 103%
Second compound 10 µM, first compound 1 µM
  viability, T/C: 91.5%
Second compound 10 µM, first compound 3.16 µM
  viability, T/C: 82.5%
Second compound 10 µM, first compound 10 µM
  viability, T/C: 33.1%

## C=CCn1c(=O)c2cnc(Nc3ccc(N4CCN(C)CC4)cc3)nc2n1-c1cccc(C(C)(C)O)n1
Compound 0.00316 µM
  viability, T/C: 96.3% and 101% and 120%
Compound 0.01 µM
  viability, T/C: 104% and 117% and 103%
Compound 0.0316 µM
  viability, T/C: 94.6% and 104% and 95.5%
Compound 0.1 µM
  viability, T/C: 98.4% and 100% and 113%
Compound 0.316 µM
  viability, T/C: 99% and 117% and 98.4%
Compound 1 µM
  viability, T/C: 60.4% and 62.4% and 59%
Curve of compound
  IC50: > 1 µM

## Cn1ncnc1[C@H]1c2n[nH]c(=O)c3cc(F)cc(c23)N[C@@H]1c1ccc(F)cc1 + Nc1ccc(C#CCN(C(=O)Cc2ncc(C(F)(F)F)cc2C(F)(F)F)c2ccc(F)cc2)nn1
[1]
  IC50: > 0.1 µM
[2]
  IC50: > 0.1 µM
[3]
  IC50: > 0.1 µM
[4]
  IC50: > 0.1 µM
[5]
  IC50: > 0.1 µM
[6]
  IC50: > 0.1 µM
Second compound 0.0316 µM, first compound 0.000316 µM
  viability, T/C: 92%
Second compound 0.0316 µM, first compound 0.001 µM
  viability, T/C: 109%
Second compound 0.0316 µM, first compound 0.00316 µM
  viability, T/C: 98.2%
Second compound 0.0316 µM, first compound 0.01 µM
  viability, T/C: 116%
[7]
  viability, T/C: 98.7%
[8]
  viability, T/C: 93.2%
Second compound 0.1 µM, first compound 0.000316 µM
  viability, T/C: 111%
Second compound 0.1 µM, first compound 0.001 µM
  viability, T/C: 104%
Second compound 0.1 µM, first compound 0.00316 µM
  viability, T/C: 108%
Second compound 0.1 µM, first compound 0.01 µM
  viability, T/C: 102%
[9]
  viability, T/C: 100%
[10]
  viability, T/C: 96%
Second compound 0.316 µM, first compound 0.000316 µM
  viability, T/C: 102%
Second compound 0.316 µM, first compound 0.001 µM
  viability, T/C: 103%
Second compound 0.316 µM, first compound 0.00316 µM
  viability, T/C: 96.7%
Second compound 0.316 µM, first compound 0.01 µM
  viability, T/C: 93.8%
[11]
  viability, T/C: 112%
[12]
  viability, T/C: 98.9%
Second compound 1 µM, first compound 0.000316 µM
  viability, T/C: 100%
Second compound 1 µM, first compound 0.001 µM
  viability, T/C: 107%
Second compound 1 µM, first compound 0.00316 µM
  viability, T/C: 109%
Second compound 1 µM, first compound 0.01 µM
  viability, T/C: 94.5%
[13]
  viability, T/C: 95.2%
[14]
  viability, T/C: 97.2%
Second compound 3.16 µM, first compound 0.000316 µM
  viability, T/C: 106%
Second compound 3.16 µM, first compound 0.001 µM
  viability, T/C: 99.3%
Second compound 3.16 µM, first compound 0.00316 µM
  viability, T/C: 95.9%
Second compound 3.16 µM, first compound 0.01 µM
  viability, T/C: 91.7%
[15]
  viability, T/C: 95.8%
[16]
  viability, T/C: 93%
Second compound 10 µM, first compound 0.000316 µM
  viability, T/C: 108%
Second compound 10 µM, first compound 0.001 µM
  viability, T/C: 95.3%
Second compound 10 µM, first compound 0.00316 µM
  viability, T/C: 116%
Second compound 10 µM, first compound 0.01 µM
  viability, T/C: 119%
[17]
  viability, T/C: 109%
[18]
  viability, T/C: 90.1%
